Patent publication US20240182475A1 (Université de Lausanne, priority 2021, published 2024)
One block for each compound: values may come before it.

How the values were obtained:
[1] = tested on: WT murine primary chondrocytes; assay: Murine primary chondrocyte calcification (Alizarin red); assay type: cell-based, mouse
Description: (a) WT and Cse-deficient chondrocytes were incubated with a CSE activator (SU004, 50 μM) previously identified by high-through put screen, or with the equivalent volume of DMSO (0.1%) for 24 hours in calcification medium. STS 25 mM was used as a positive control for calcification inhibition. Calcium-containing crystals were stained with Alizarin red and quantified. (b) Cytotoxicity was assessed by LDH measurement and expressed as % over 100% cytotoxicity. (c) IL-6 secretion was measured by ELISA in supernatant of WT chondrocytes incubated with SU004 50 μM or STS 25 mM for 24 hours in calcification medium. (d) Primary human chondrocytes from 3 OA patients (P1, P2, P3) were incubated with SU004 50 μM, or with the equivalent volume of DMSO (0.1%) for 24 hours in calcification medium. Calcium-containing crystals were stained with Alizarin red and quantified. (e) Cytotoxicity was assessed by LDH measurement and expressed as % over 100% cytotoxicity. (f) IL-6 secretion was measured by ELISA in supernatant of human chondrocytes incubated for 24 hours with SU004 50 μM in calcification medium. *p<0.05, ** p<0.01, ****p<0.0001.
Primary murine chondrocytes were stimulated with secondary calciprotein particles (sCPP) for 24 h in DMEM+10% FBS in presence of C5 or C6 at 50 uM or vehicle (DMSO). Mineralization was analyzed by Alizarin red staining of the cells (A) and quantified (B). Statistical analysis was determined using one-way ANOVA with **p<0.01 and ***p<0.001.
Chondrocytes were isolated from 6 days old mice (Cse KO, Cse tg, Cbs KO and corresponding WT mice) as described previously (Nasi, So, et al. 2016). Tenocytes were isolated from 6 to 8 weeks old mice (Cse KO and WT) and by double digestion in Collagenase IV NB standard grade (Witec AG). […]
After incubation in calcification media, supernatant was collected for ELISA and LDH measurement, and cell monolayer was washed in PBS, fixed in 10% formol and crystal deposition analyzed through Alizarin red staining and quantified as previously described

[2] = biological target: T1, recombinant human CSE (hCSE) (Homo sapiens, UniProt P32929); assay: High-throughput screening pyruvate assay for CSE activators; assay type: biochemical; details: 5 μM; % of pyruvate generated over hCSE alone
T1 construct: purchased ProteoGenix, France
Description: The chemical reactions involved in the 2 step assay are depicted. In (a) recombinant human CSE (hCSE) is incubated with L-cysteine, generating H2S and pyruvate. In (b) pyruvate is oxidized by pyruvate oxidase (PDX) to generate acetate, carbon dioxide (CO2) and hydrogen peroxide (H2O2). H2O2 then reacts with Amplex Red in a 1:1 stoichiometry to form the red fluorescent product, resorufin. (c) hCSE-dependent pyruvate measurement without enzyme (no pyruvate production), with the specific CSE inhibitor AVG 5 μM (inhibition of pyruvate production) and with the CSE activator calmodulin 5 μM (increased pyruvate production). Results were expressed as the % of pyruvate generated over hCSE alone. (d) Chemical structure of the new small molecule CSE activator SU004. (e) CSE-dependent pyruvate upon incubation of hCSE with L-cysteine and with increasing concentration of SU004. The ability of SU004 to activate hCSE was calculated as % of normalized activity.
We therefore hypothesized that potential CSE activators could counter these effects and be of therapeutic value in musculoskeletal HC. We set up a screening assay with human recombinant CSE (hCSE) and L-Cysteine as substrate, using as read-out the production of pyruvate as a surrogate of H2S production. As expected, pyruvate was detected only in presence of hCSE. […]

[3] = tested on: MOVAS cells; assay: Cytotoxicity assay, LDH release; assay type: cell-based, mouse; details: at 50 uM
Description: A) Alizarin red staining of MOVAS cells stimulated with CPP for 24 h in DMEM+10% FBS in presence of different concentrations of compound 22401. […] The background (Alizarin red staining obtained with cells in the absence of CPP) was subtracted from all values. B) Percentage of cytotoxicity, as measured by LDH release, in MOVAS cells in the same conditions as A). Statistical analysis was determined using one-way ANOVA with *p<0.05, **p<0.01, ***p<0.001.
Measurement of lactate dehydrogenase (LDH) as a means of cytotoxicity assay was performed with using CytoTox-ONE Homogeneous Membrane Integrity Assay (Promega) according to the manufacturer's instructions. Values were calculated as percentage of cytotoxicity using the following formula: [(value in sample)−(background)]/[(value in Triton X-100-treated sample)−(background)]×100.

[4] = tested on: ATDCS chondrocytes; assay: ATDCS chondrocyte mineralization (Alizarin red); assay type: cell-based; details: sCPP 24 h, different concentrations
Description: Alizarin red staining of ATDCS chondrocytes stimulated with sCPP for 24 h in DMEM+10% FBS in presence of different concentrations of compounds C5 and C6. The graphs show Alizarin red absorbance at 570-630 nm. Statistical analysis (in comparison to 0) was determined using one-way ANOVA with *p<0.05, **p<0.01, ***p<0.001, […].

[5] = tested on: MOVAS cells; assay: MOVAS cell calcification assay (Alizarin red); assay type: cell-based, mouse
Description: A) Alizarin red staining of MOVAS cells stimulated with sCPP for 24 h in DMEM+10% FBS and treated or not with 50 uM of compounds. […] Statistical analysis was determined using one-way ANOVA with ***p<0.001. C) Percentage of cytotoxicity (LDH %) in MOVAS treated or not with compounds for 24 h. D) MOVAS cells were seeded onto half-area 96-well plate and incubated overnight. Then C5 or C6 at 50 uM or vehicle (DMSO), L-cysteine at 10 mM, PLP at 5 uM and the H2S sensitive fluorescent probe AzMC at 10 μM were added. The fluorescence was immediately measured in kinetic mode for 2 h at 37° C. with SpectraMax M5 reader, with excitation and emission wavelengths of 365 nm and 450 nm, respectively.
A) Alizarin red staining of Movas cells stimulated with sCPP for 24 h in DMEM+10% FBS and treated or not with 50 uM of Z20. […] C) Percentage of cytotoxicity (LDH %) in murine chondrocytes treated or not with Z20 for 24 h. Statistical analysis was determined using one-way ANOVA with ***p<0.001.
Alizarin red staining of MOVAS cells stimulated with sCPP for 24 h in DMEM+10% FBS and treated or not with different concentrations of compounds (A: C6) and (B: Z20). The graphs show Alizarin red absorbance at 570-630 nm. Statistical analysis was determined using one-way ANOVA with *p<0.05, **p<0.01, ***p<0.001.
CPP were generated by preparing 20 ml DMEM containing 10% FBS, 1 mmol/L CaCl2, 3.5 mmol/L inorganic phosphate (1.36 mmol/L NaH2PO4 and 2.14 mmol/L Na2HPO4) (Aghagolzadeh et al. Atherosclerosis, 2016). After 7 days incubation at 37° C., the suspension was centrifuged at 25000 g for 2 h at 4° C., and the pellet containing CPP was resuspended in 1 ml DMEM and stored at −20° C. until further use.
Mouse vascular smooth muscle cell line (MOVAS) cells were cultured according to the manufacturer's guidelines in DMEM culture medium supplemented with 10% FBS. Cells were cultured at 37° C. in a humidified atmosphere with 5% CO2. All cell culture experiments in 96-well plates were performed in triplicates and were repeated independently two times.
For calcification experiments, cells were seeded in 96-well plates at a density of 50,000 cells/well and left to attach for 18 h. Calcification of cell monolayers was induced by CPP (equivalent to 50 μg Ca/mL) for 24 h at 37° C., 5% CO2 in presence of various concentrations of compounds (all in final 0.1% DMSO), or of 0.1% DMSO as a control, to reach a final volume of 200 μl/well. Calcium deposition was assessed by 0.5% w/v Alizarin Red staining (pH 4.2). Briefly, after PBS washing, methanol fixation for 10 min at 4° C., and milli-Q water washing, cells were incubated for 60 min with 200 μL Alizarin Red solution and then washed four times with milli-Q water. Quantification was performed after crystal dissolution with cetylpyridinium chloride (10%) for 18 h. The absorbance was measured at 570 and 630 nm using the Spectramax M5e reader (Molecular Devices). The background (alizarin red staining obtained with cells in the absence of CPP) was subtracted from all values.

T1 sequence (P32929 whole entry): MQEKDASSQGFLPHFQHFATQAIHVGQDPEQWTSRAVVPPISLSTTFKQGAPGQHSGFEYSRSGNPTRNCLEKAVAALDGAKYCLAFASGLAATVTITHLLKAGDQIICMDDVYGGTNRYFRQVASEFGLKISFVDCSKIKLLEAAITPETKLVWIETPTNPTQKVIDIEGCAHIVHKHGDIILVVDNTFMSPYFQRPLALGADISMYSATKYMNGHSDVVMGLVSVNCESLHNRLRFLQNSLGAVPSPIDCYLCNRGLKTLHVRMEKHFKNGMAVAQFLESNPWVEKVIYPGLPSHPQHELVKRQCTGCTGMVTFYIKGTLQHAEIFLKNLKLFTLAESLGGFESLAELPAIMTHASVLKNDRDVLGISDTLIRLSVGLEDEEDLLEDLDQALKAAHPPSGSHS

Compound: N[C@@H](CCS)C(=O)O [homocysteine, reference compound]
Calcification ([1]; WT chondrocytes incubated with 100 μM or 25 μM): significantly decreased

hCSE-dependent pyruvate production [2]: pyruvate up-modulation
Compound: calmodulin

Compound: N-{1-[(pyridin-2-yl)methyl]-1H-pyrazol-4-yl}benzamide [Compound 12]
Cytotoxicity assay LDH release (% of cytotoxicity) [3]: 13% at
Mineralization (Alizarin red absorbance 570-630 nm) [4]: inhibit ATDCS mineralization in vitro in a dose dependent fashion
Mineralization (Alizarin red) ([1]; sCPP 24 h, DMEM+10% FBS, 50 uM): inhibit primary murine chondrocyte mineralization
Calcification assay Max calcification inhibition (%) at the indicated dose of compound (uM) ([5]; at 50 uM): 43% at
Mineralization (Alizarin red) ([5]; sCPP 24 h, 50 uM): inhibit murine vascular smooth muscle cells (MOVAS cells) mineralization
Mineralization (Alizarin red absorbance 570-630 nm) ([5]; sCPP 24 h, different concentrations): Dose-dependent effect

hCSE-dependent pyruvate production [2]: almost complete inhibition
Compound: NCCO/C=C/C(N)C(=O)O (stereo not drawn) [AVG]
